Experimental findings from article PMC4039064, “An inhibitor-driven study for enhancing the selectivity of indirubin derivatives towards leishmanial Glycogen Synthase Kinase-3 over leishmanial cdc2-related protein kinase 3” (Parasites & Vectors, 2014) are described below.

The target in assay [1] is T1, LGSK-3 (leishmanial Glycogen Synthase Kinase-3 short) (Leishmania donovani, UniProt A6N857).
T1 construct: recombinant, purified from L. donovani over-expressing transfectants (homologous expression); A6N857 is printed for the L. donovani homology model and alignment
T1 sequence (A6N857 1-355): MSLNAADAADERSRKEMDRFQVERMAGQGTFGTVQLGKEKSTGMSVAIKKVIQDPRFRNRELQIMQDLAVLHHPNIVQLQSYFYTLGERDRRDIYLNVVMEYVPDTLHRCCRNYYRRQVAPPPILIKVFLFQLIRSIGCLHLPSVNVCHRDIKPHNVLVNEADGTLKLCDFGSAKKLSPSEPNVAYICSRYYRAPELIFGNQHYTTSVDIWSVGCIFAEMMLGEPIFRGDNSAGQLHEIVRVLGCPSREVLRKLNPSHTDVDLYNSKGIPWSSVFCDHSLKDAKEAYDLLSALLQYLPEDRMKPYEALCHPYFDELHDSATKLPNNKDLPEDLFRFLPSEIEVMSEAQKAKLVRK
Briefly: luminescent kinase assay (Promega). The format is biochemical. As to conditions: read-out: L GSK-3.

Assay [2] addresses T2, LCRK3 (cdc2-related protein kinase 3) (Leishmania mexicana, UniProt O15851).
T2 construct: gene crk3; recombinant, purified from transgenic L. mexicana promastigotes (homologous expression, gift of K. Grant)
T2 sequence (O15851 1-311): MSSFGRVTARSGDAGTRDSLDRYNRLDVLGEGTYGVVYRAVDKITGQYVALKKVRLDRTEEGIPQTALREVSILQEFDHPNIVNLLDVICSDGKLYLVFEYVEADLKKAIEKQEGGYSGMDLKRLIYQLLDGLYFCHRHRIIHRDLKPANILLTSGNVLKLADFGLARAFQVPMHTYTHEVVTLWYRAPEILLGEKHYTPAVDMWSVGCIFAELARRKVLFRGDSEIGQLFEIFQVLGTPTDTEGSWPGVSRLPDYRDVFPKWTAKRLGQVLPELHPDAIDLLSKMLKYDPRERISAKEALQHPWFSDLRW
As to the kind of experiment: luminescent kinase assay (Promega). The format is biochemical. The settings on record: read-out: L CRK3.

For `Cc1cc2c(cc1Br)NC(=O)C2=C1Nc2ccccc2C1=NO` [5-Me-6-BIO, 5-methyl-6-bromoindirubin-3′-oxime], the figures for the IC50 in assay [1] and in assay [2] were 0.09 ± 0.02 µM and 0.65 ± 0.09 µM, respectively.
